Data: publication PMC8564633, “SMAC/Diablo controls proliferation of cancer cells by regulating phosphatidylethanolamine synthesis” (Molecular Oncology, 2021)

Tests used:
[1] = Cell death induced by the PE probe; type: cell-based; details: data not shown
[2] = tested on: A549 cell xenograft; assay: A549 lung cancer xenograft tumour growth; type: in vivo, athymic nude mice; details: relative to si‐NT‐treated tumours, nude mice, n = 8 mice/group
Procedure: Male Hsd:Athymic ' Nude‐Foxn1nu mice (6–8 weeks old) were obtained from Envigo and were kept in the university animal facility in temperature‐controlled rooms and provided with water and food pellets ad libitum. All procedures involving mice were approved by the Ben‐Gurion Institutional Animal Care and Use Committee.
Lung cancer A549 (3 × 10 ^6 ) cells were implanted subcutaneously on the dorsal flanks. Tumour growth was recorded using digital calibre, and volumes were calculated using, volume = X^2 × Y/2, where X and Y are the short and long tumour dimensions, respectively. Mice were divided randomly into three groups once the average tumour volume reached ˜ 80 mm^3 and were treated subcutaneously with si‐NT or si‐hSMAC‐A mixed with JetPEI reagent (350 or 700 nM final concentration) three times a week. Mice were sacrificed at the end of experiment, and the tumours were excised and processed for immunohistochemistry (IHC) or frozen in liquid nitrogen for immunoblotting and RNA isolation.
(§1) Results are presented as the mean tumour volume ± SEM. […] Results are the means ± SEM.

[3] = tested on: SMAC/Diablo; assay: SMAC expression in treated tumours (immunoblot, IHC); type: in vivo, human; details: si‐hSMAC‐A‐TTs versus si‐NT‐TTs, n = 6 mice/group
Procedure: Cells were harvested and washed twice with ice‐cold PBS, and the pellets were lysed on ice for 30 min in a lysis buffer (50 mM Tris/HCl, pH 7.5, 150 mM NaCl, 1 mM EDTA, 1.5 mM MgCl2, 10% glycerol, 1% Triton X‐100), freshly supplemented with a protease inhibitor cocktail (Calbiochem) and centrifuged (10 min, 12 000 g ). The protein concentration of the supernatant was determined, and cells were stored at −80 °C until used for gel electrophoresis and immunoblotting. Protein samples (10–20 μg) were subjected to SDS‐PAGE and immunoblotting, using the selected primary antibodies, followed by incubation with HRP‐conjugated secondary antibodies. HRP activity was determined using EZ‐ECL (Biological Industries). Band intensity was quantified using FUSION‐FX (Vilber Lourmat, Collégien, France).
as §1

[4] = tested on: A549 cell xenograft; assay: TUNEL staining of treated tumours; type: in vivo, athymic nude mice; details: si‐hSMAC‐A‐TTs, data not shown
[5] = tested on: phospholipid levels; assay: Total PL, PC and PE levels in treated tumours; type: in vivo; details: si‐hSMAC‐A‐TTs relative to si‐NT‐TTs, n = 6 mice per group
Procedure: Total lipids were extracted from the SMAC‐KO and wild‐type A549/HEK 293T cells by the Folch method. Briefly, a cell suspension (2 × 10^7 cells/mL) was made in CHCl3/MeOH (2 : 1, v/v) sonicated for 30 s. Water (116 μL·mL^−1) was added to the suspension and shaken for 2 h at room temperature at 300 r.p.m. The aqueous suspension was heated for 10 min at 60 °C and stored at 4 °C for 3 h. Undissolved material was filtered through a 0.45‐μm syringe filter. Solvent was evaporated under nitrogen, and residues were re‐dissolved in CHCl3/MeOH for lipid analysis.
Total phospholipid content of the cells was determined calorimetrically at 488 nm based on the formation of a complex between the PLs and ammonium ferrothiocyanate. PC level was also determined by calorimetric analysis at 316 nm using ammonium thiocyanatocobaltate reagent, as described previously.
(§2) PE content in the lipid samples was measured as described previously. Briefly, solvent was evaporated from the lipid samples under nitrogen gas, and samples were resuspended in 0.8 mM Triton X‐100. Sample aliquots were added to 96‐well plates containing (50 µL) reaction mixture (80 mM NaCl, 2 mM K2HPO4, pH 7.4) and of borate buffer (12.5 µL) (100 mM boric acid, 75 mM NaCl, 25 mM sodium tetraborate, pH 9). After mixing, 12.5 µL of 100 µM DSB‐3, in 10 mM K2HPO4 (pH 7.4), was then added and incubated for 2 h in the dark with shaking (100 r.p.m.). Fluorescence was measured using excitation λex = 403 nm and emission λem = 508 nm. A calibration curve was obtained using PE (Biovision) as a standard.
as §1

[6] = tested on: VDAC1‐IP3R close association (MAM); assay: In‐situ proximity ligation assay VDAC1‐IP3R (MAM) in tumour sections; type: in vivo; details: si‐hSMAC‐A‐TTs sections relative to si‐NT‐TTs
Procedure: PLA was conducted as previously described using an in␣situ detection reagent red kit (DuoLink InSitu PLA Probe kit; Sigma‐Aldrich) according to the manufacturer’s protocol. VDAC1‐IP3R and SMAC‐PSD were analysed using PLA [24]. Briefly, for tumour section, formalin‐fixed and paraffin‐embedded tumour sections (5‐μm thick) were deparaffinized and then permeabilized using 0.3% Triton X‐100 in PBS for 30 min, followed by blocking with Duolink® Blocking Solution for 1 h. Sections were incubated overnight with anti‐VDAC1 (rabbit 1 : 750) and anti‐IP3R (mouse, 1 : 750), washed twice with TBS‐Tween (0.01%) and then incubated for 1 h with the secondary anti‐mouse and anti‐rabbit antibodies (PLA probe MINUS and PLUS) that were conjugated to complementary oligonucleotide extensions, and ligation and amplification steps were performed per manufacturer’s instructions, and Texas red‐labelled oligonucleotide probes were detected.
Fig. 3 Subcellular morphological alterations including ER‐mitochondria contact sites, as induced by reduction of SMAC levels. […] (C) and subjected to quantitative analysis (n = 5) (D). […] Images at high magnification (Ea,b) (scale bars represent 20, 5 µm as indicated) and ligation product quantification (F) are also shown.

[7] = tested on: Ki‐67; details: si‐hSMAC‐A‐TTs versus si‐NT‐TTs, IHC
Procedure: Formalin‐fixed and paraffin‐embedded tumour sections were deparaffinized using xylene and a series of ethanol treatments. Sections were then incubated with 3% H2O2 for 10 min to block endogenous peroxidase activity. Antigen retrieval was done in 0.01 M citrate buffer (pH 6.0) at 95–98 °C for 30 min and washed with PBST (0.1% Tween‐20). In order to reduce nonspecific binding, sections were incubated in 10% NGS for 2 h and then incubated with primary antibodies (Table S1) overnight at 4 °C. For IHC, after washing with PBST, sections were incubated for 2 h at room temperature with HRP‐conjugated secondary antibodies, washed well with PBST and incubated with the substrate DAB Sections were washed with water, counterstained with haematoxylin and mounted with Vectashield mounting medium (Vector Laboratories). Sections were observed under a microscope (Leica DM2500, Wetzlar, Germany), and images were collected at 20× magnification with the same light intensity and exposure time. For IF, following overnight incubation with the primary antibodies, PBST‐washed sections were incubated with fluorescent‐tagged secondary antibodies for 2 h at room temperature in the dark. […]
(D‐F) IHC stained of si‐hSMAC‐ or si‐NT‐TTs sections for SMAC (D), Ki‐67 (E), and their quantitative analysis (F) (n = 6 mice/group). […]

[8] = biological target: T1, purified PSD (Homo sapiens, UniProt Q9UG56); assay: PSD activity, DSB‐3 method; type: biochemical; details: PS 50 μM, 45 min, 30 °C, n = 4, read-out: IC50, SMAC‐inhibiting PSD activity
T1 construct: Purified recombinant protein (full length) of human phosphatidylserine decarboxylase (PSD); His tag (N); purchased Acris-OriGene; host or cells: E. coli
T1 sequence (Q9UG56 53-409): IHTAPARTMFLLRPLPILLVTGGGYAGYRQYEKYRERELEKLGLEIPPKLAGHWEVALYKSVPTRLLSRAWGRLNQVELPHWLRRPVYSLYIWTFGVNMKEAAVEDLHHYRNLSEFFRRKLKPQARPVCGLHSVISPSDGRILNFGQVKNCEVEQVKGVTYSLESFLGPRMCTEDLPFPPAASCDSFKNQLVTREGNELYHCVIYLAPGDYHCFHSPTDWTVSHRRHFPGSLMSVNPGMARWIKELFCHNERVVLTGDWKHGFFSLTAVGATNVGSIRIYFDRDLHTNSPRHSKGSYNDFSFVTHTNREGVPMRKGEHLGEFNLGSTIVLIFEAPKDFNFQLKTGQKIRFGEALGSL
Procedure: as §2
To determine PSD activity, purified enzyme (0.2–0.4 μM) or crude cell lysate (0.25–0.5 μg of protein) was incubated with PS (50 μM) for 45 min at 30 °C in the dark with shaking under the conditions described above for PE determination. PSD activity was measured by determining the PE produced as described above, except that the signal obtained in the absence of substrate PS (representing endogenous PE) was subtracted from the signal obtained in the presence of PS.
Human recombinant SMAC (10339‐H08E) was produced by Sino Biologicals (Wayne, PA, USA). […]

Distyrylbenzene‐bis‐aldehyde [DSB‐3]
cell death [1]: no cell death

si‐hSMAC‐A: Human SMAC/Diablo‐specific siRNA, sense 5′AAGCGGUGUUUCUCAGAATTGtt3′, antisense 5′AACAAUUCUGAGAAACCCG Ctt3′ (sense AAGCGGUGUUUCUCAGAATTGTT; antisense AACAAUUCUGAGAAACCCGCTT; chemistry not given here)
tumour volume reduced ([2]; si‐hSMAC‐A 350 nM): 50%
tumour volume reduced ([2]; si‐hSMAC‐A 700 nM): 85%
SMAC/Diablo level decreased [3]: 75%
cell death, TUNEL staining [4]: No cell death was detected
levels of PE increased ([5]; DSB‐3 probe): 200%
levels of PC decreased [5]: 65%
levels of PLs decreased [5]: 50%
PLA signal VDAC1‐IP3R [6]: over fourfold
expression of Ki‐67, cell proliferation marker [7]: highly reduced

B1: SMAC: Human recombinant SMAC (10339‐H08E) produced by Sino Biologicals (protein)
chain: LCVPVVANFKKRCFSELIRPWHKTVTIGFGVTLCAVPIAQKSEPHSLSSEALMRRAVSLVTDSTSTFLSQTTYALIEAITEYTKAVYTLTSLYRQYTSLLGKMNSEEEDEVWQVIIGARAEMTSKHQEYLKLETTWMTAVGLSEMAAEAAYQTGADQASITARNHIQLVKLQVEEVHQLSRKAETKLAEAQIEELRQKTQEEGEERAESEQEAYLRED
modifications: fluorescently labelled with the NanoTemper Protein labelling kit BLUE (in the MST with PSD only)
notes: Human recombinant SMAC (10339‐H08E) produced by Sino Biologicals
IC50 [8]: 0.4 µM
